Literature values, collected in patent EP2594258B1, “Oral gel comprising praziquantel” (Veterinärmedizinische Universität Wien, priority 2011, dated 2013).

How the values were obtained:
[1] = system: alpacas

solubility in chloroform (chloroform)	solubility in dimethylsulfoxide (dimethylsulfoxide)	solubility in ethanol (ethanol)	solubility in water (water)	Compound	intoxication following treatment [1]
easily soluble	easily soluble	soluble	up to 400 mg/L	O=C(C1CCCCC1)N1CC(=O)N2CCc3ccccc3C2C1 (racemic) [Praziquantel, (RS)-2-Cyclohexylcarbonyl-2,3,4,6,7,11b-hexahydro-1H-pyrazino(2,1-a) isoquinolin-4-on]	–
–	–	–	–	CCCSc1ccc2nc(NC(=O)OC)[nH]c2c1 [albendazole]	Lethal intoxications
